Where “and” joins values, the source holds several entries; their conditions need not be identical. Equal entries are not always repeated.
Key:
[1] = test system: BR16 CTC-derived cells; experiment: FDA-approved compound screen for CTC cluster dissociation (high content imaging); type: cell-based, human; settings: even at lowest concentration tested (0.1 μM), 2 days, hypoxia
Method: In order to identify actionable vulnerabilities of CTC clusters, and to test whether the epigenetic and transcriptional features of clustered CTCs are reversible upon cluster dissociation into single cells the following steps were undertaken. First, the expression of all known cell-cell junction (CCJ) components in patient samples obtained from normal breast (TGCA REF), breast cancer (TOGA REF), single CTCs and CTC clusters were assessed (Aceto et al. Cell 2014). While breast cancer cells tend to only partially reduce their CCJ repertoire compared to normal breast cells, CTCs express only a small fraction of CCJ components, likely as a consequence to their increased motility. Yet, CTC clusters retain a higher number of CCJs as compared to single CTCs. […] To this end, 2′486 FDA-approved compounds were evaluated for their ability to dissociate clusters of human breast CTC-derived cells. Cluster dissociation was assessed using a high content screening microscope and comparing cells treated with each individual compound to steady state clustered BR16 cells and 40 μm-filtered BR16 single cell suspension as negative and positive controls, respectively (FIG. 4a). […] For the majority of the 2′486 FDA-approved compounds, when using a 5 μM concentration for 2 days in hypoxic conditions, no detectable reduction in cell viability (>70% viability) nor mean cluster size (>450 μm2) in BR16 CTC-derived cells was observed. […] These compounds include inhibitors of Na^+/K^+ ATPases (n=6), HDACs (n=2), nucleotide biosynthesis (n=5), kinases (n=4), GPCRs (n=2), cholesterol biosynthesis (n=1), nuclear export (n=1), tubulin (n=9), as well as DNA binding compounds (n=8) and antibiotics (n=1).
A library containing 2,486 FDA-approved compounds was purchased from the Nexus Platform ETH Zurich. Each compound was resuspended using CTC medium at a 15 μM concentration and 20 μl were aliquoted in duplicate in a total of 64 Flat Bottom Clear Ultra Low attachment 96-well plates (Corning, Cat #3474).
To reduce cluster size in CTC derived cell lines, a 40 μm cell strainer was used (Corning, Cat #431750). […] Plates were incubated in hypoxia (5% oxygen) for 2 days and then 20 μl were transferred into a 96 well Black/clear Tissue culture treated plate (BD Falcon, Cat #353219) containing 40 μl of D-PBS (Invitrogen, Cat #14190169) and stained for 1 hr at 37° C. with a final concentration of 4 μM Hoechst 34580 (Invitrogen, Cat #H21486), 2 μM TMRM (Invitrogen, Cat #T668) and 4 μM TOTO-3 (Invitrogen, Cat #T3604). For each plate, two positive controls (non-treated cells) and two negative controls (non-treated and […] cells) were included. Z-factors were calculated per individual plate using the following formula: Z′=1−3(σs+σc)/|μs−μc|^3 (σ: standard deviation, μ: mean, s: positive control and c: negative control) (Martin et al., PLoS One 9, e88338, 2014) and ranged between 0.62-0.937. Plates were scanned using Operetta High Content Imaging System (Perkin Elmer) and cluster analysis was performed using Harmony High Content Imaging and Analysis Software (Perkin Elmer).

[2] = test system: BR16 cells; experiment: Tail vein injection of in vitro pre-treated BR16 cells, metastasis seeding; type: in vivo, NSG mice
Method: To test whether ouabain and digitoxin would also enable CTC clusters disruption in vivo, the inventors took a dual approach. First, the inventors tested whether a 17-day in vitro treatment with ouabain and digitoxin would translate into a reduced ability of the treated cells to efficiently seed metastasis in untreated mice (FIG. 7A). To this end, upon treatment, BR16 cells stably expressing GFP-luciferase were injected into the tail vein of NSG mice and noninvasively monitored through luminescence imaging for their ability to seed and propagate metastatic lesions.
For tail vein experiments, NOD SCID Gamma (NSG) mice (Jackson Labs) were injected with 1×10^6 BR16-mCherry cells resuspended in 100 μl D-PBS and monitored with IVIS Lumina II (Perkin Elmer). For CTC xenograft mouse model isolation, 1×10^6 LM2-GFP, 1×10^6 BRx50-GFP or 1×10^6 BR16-GFP cells were resuspended in 100 μl of 50% Cultrex PathClear Reduced Growth Factor Basement Membrane Extract (R&D Biosystems, Cat #3533-010-02) in D-PBS and injected orthotopically in NSG mice. Blood draw was performed 4-5 weeks after tumor onset for LM2 cells, 5-6 months after tumor onset for BR16 and 6-7 months after tumor onset for BRx50 cells.

[3] = test system: BRx50 human CTC-derived cells; experiment: FDA-approved compound screen for CTC cluster dissociation (high content imaging); type: cell-based; settings: even at lowest concentration tested (0.1 μM)
[4] = test system: BR16 CTC cell line; experiment: 17-day treatment, WGBS and i-cisTarget analysis of DMRs that gain methylation; type: cell-based, human; settings: 20 nM, 17-day treatment
Method: (§1) In order to assess the effect of clustering on DNA methylation patterns and proliferation signature directly BR16 and BRx50 cell lines were cultured for 17 days to ensure that at least 4 divisions would take place. This is to allow proper time for DNA methylation remodeling to take place.
(§2) Under these conditions, for both CTC derived cell lines, a subset of cluster-associated hypomethylated DMRs from patient and xenografts regain ≥20% methylation.
(§3) Proteinase K digestion and bisulfite treatment was performed according to manufacturer's instructions for EZ DNA Methylation Direct Kit (Zymo, Cat #D5020). Bisulfite-treated DNA was eluted using 9 μl of Elution Buffer and used for library generation with TruSeq DNA methylation kit (Illumina, Cat #EGMK91396) according to manufacturer's instructions. For amplification, 18 cycles were performed using Failsafe Enzyme (Illumina, Cat #FSE51100) and indexes were introduced with Index Primers' Kit (Illumina, Cat #EGIDX81312). Library purification was performed using Agencourt AMPure XP beads at a ratio of 1:1 according to manufacturer's instructions. To avoid DNA loss during pipetting steps, Corning DeckWork low binding barrier pipet tips were used (Sigma, Cat #CLS4135-4X960EA). Library concentration was estimated using Qubit DS DNA HS Assay Kit according to manufacturer's instructions (Invitrogen, Cat #Q32854).
(§4) An enrichment score (ES) indicates the over- or underrepresentation of a certain object within a sample of many objects (=enrichment). […] A negative enrichment score indicates the opposite, namely that a feature is less present than to be expected by the values of other features in the sample. […] An enrichment score can be normalized by dividing a specific ES by the mean of the enrichment scores for all objects in the dataset to yield a normalized enrichment score (NES). Normalization of the enrichment score accounts for differences in gene set size and in correlations between gene sets and the expression dataset; therefore, a normalized enrichment scores (NES) can be used to compare analysis results across gene sets. Only TFBS with a NES score […] shown in the analysis.

[5] = test system: BRx50 CTC cell line; experiment: as above; type: cell-based, human; settings: 20 nM
Method: as §1, §2, §3, §4

`C[C@H]1O[C@@H](O[C@H]2[C@@H](O)C[C@H](O[C@H]3[C@@H](O)C[C@H](O[C@H]4CC[C@@]5(C)[C@H](CC[C@@H]6[C@@H]5CC[C@]5(C)[C@@H](C7=CC(=O)OC7)CC[C@]65O)C4)O[C@@H]3C)O[C@@H]2C)C[C@H](O)[C@@H]1O` [digitoxin, Digitoxin] was tested. Which mean cluster size [1] did it give?
Its mean cluster size is “significant decrease in mean cluster size”.

And the “expression of cleaved caspase 3 compared to control cells” value ([2]; cancer cells in lungs, pre-treated cells, day 1)?
The value was “significant increase”.

What about the “ability of BR16 cells to lodge in the lung tissue immediately after injection (bioluminescence flux)” value ([2]; cells pre-treated 17 days in vitro, 20 nM, tail vein, day 0) of the same compound?
The value was “did not affect”.

What about the “ability to survive during the first day upon arrival (bioluminescence flux)” value ([2]; cells pre-treated 17 days in vitro, 20 nM, tail vein, day 1) of the same compound?
Its value is “reduced ability to survive”.

What about the metastatic outgrowth ([2]; pre-treated cells, no further treatment in vivo, 72 days upon injection) of the same compound?
The metastatic outgrowth was “delayed metastatic outgrowth”.

And the mean cluster size [3]?
The mean cluster size was “significant decrease in mean cluster size”.

And the “NES score of TFBS BDP1 in DMRs with ≥20% gain in methylation” value [4]?
The value was 4.18,.

What about the “NES score of TFBS CEBPD in DMRs with ≥20% gain in methylation” value [4] of the same compound?
Its value is 3.76.

What about the “NES score of TFBS EZH2 in DMRs with ≥20% gain in methylation” value [4] of the same compound?
Its value is 4.63.

And the “NES score of TFBS FOS in DMRs with ≥20% gain in methylation” value [4]?
Its value is 6.40 and 3.63 and 3.25.

And the “NES score of TFBS FOXG1/O1 in DMRs with ≥20% gain in methylation” value [4]?
The value was 3.61.

And the “NES score of TFBS IRX3 in DMRs with ≥20% gain in methylation” value [4]?
The value was 5.

What about the “NES score of TFBS IRX6 in DMRs with ≥20% gain in methylation” value [4] of the same compound?
The value was 5 and 3.67.

What about the “NES score of TFBS KDM5A in DMRs with ≥20% gain in methylation” value [4] of the same compound?
Its value is 4.355.

What about the “NES score of TFBS MEIS1 in DMRs with ≥20% gain in methylation” value [4] of the same compound?
Its value is 3.11.

What about the “NES score of TFBS RORA in DMRs with ≥20% gain in methylation” value [4] of the same compound?
The value was 4.93 and 3.45.

What about the “NES score of TFBS SOX2 in DMRs with ≥20% gain in methylation” value [4] of the same compound?
The value was 3.22.

And the “NES score of TFBS SOX18 in DMRs with ≥20% gain in methylation” value [4]?
The value was 3.99 and 3.91.

What about the “NES score of TFBS STAT3 in DMRs with ≥20% gain in methylation” value [4] of the same compound?
The value was 3.31.

And the “NES score of TFBS YAP5 in DMRs with ≥20% gain in methylation” value [4]?
Its value is 5.4 and 5.32 and 4.56.

What about the “NES score of TFBS ZNF92 in DMRs with ≥20% gain in methylation” value [4] of the same compound?
Its value is 3.44.

And the “number of DMRs with ≥20% gain in methylation” value [4]?
The value was “(n = 150)”.

And the “NES score of TFBS BCL11A in DMRs with ≥20% gain in methylation” value [5]?
Its value is 7.65.

And the “NES score of TFBS BDP1 in DMRs with ≥20% gain in methylation” value [5]?
The value was 6.83.

And the “NES score of TFBS BHLHE40/4 in DMRs with ≥20% gain in methylation” value [5]?
Its value is 4.61.

What about the “NES score of TFBS FOS in DMRs with ≥20% gain in methylation” value [5] of the same compound?
The value was 4.2 and 3.4.

What about the “NES score of TFBS HMBOX1 in DMRs with ≥20% gain in methylation” value [5] of the same compound?
Its value is 3.749.

And the “NES score of TFBS HSF1 in DMRs with ≥20% gain in methylation” value [5]?
Its value is 7.2.

What about the “NES score of TFBS KDM5D in DMRs with ≥20% gain in methylation” value [5] of the same compound?
Its value is 3.77.

And the “NES score of TFBS LEF1 in DMRs with ≥20% gain in methylation” value [5]?
The value was 3.01.

What about the “NES score of TFBS LSM6 in DMRs with ≥20% gain in methylation” value [5] of the same compound?
Its value is 3.05.

What about the “NES score of TFBS OCT4 in DMRs with ≥20% gain in methylation” value [5] of the same compound?
The value was 3.49 and 3.4 and 3.37.

And the “NES score of TFBS POU1F1 in DMRs with ≥20% gain in methylation” value [5]?
The value was 4.02 and 3.98.

And the “NES score of TFBS REST in DMRs with ≥20% gain in methylation” value [5]?
Its value is 4.85 and 3.16 and 3.11.

And the “NES score of TFBS STAT3 in DMRs with ≥20% gain in methylation” value [5]?
Its value is 3.22.

And the “NES score of TFBS ZKSCAN8 in DMRs with ≥20% gain in methylation” value [5]?
The value was 4.32.

What about the “NES score of TFBS ZNF493 in DMRs with ≥20% gain in methylation” value [5] of the same compound?
Its value is 3.88.

And the “number of DMRs with ≥20% gain in methylation” value [5]?
Its value is “(n = 124)”.

Reference: patent US20220062317A1, “NA+/K+ ATPASE INHIBITORS FOR USE IN THE PREVENTION OR TREATMENT OF METASTASIS” (UNIVERSITÄT BASEL, priority 2018, published 2022)
